Target: LigI (Sphingobium sp. SYK-6, UniProt O87170)
Experiment: spectrophotometric PDC hydrolysis at […] nm
Type: biochemical

LigI, sequence (O87170 2-293): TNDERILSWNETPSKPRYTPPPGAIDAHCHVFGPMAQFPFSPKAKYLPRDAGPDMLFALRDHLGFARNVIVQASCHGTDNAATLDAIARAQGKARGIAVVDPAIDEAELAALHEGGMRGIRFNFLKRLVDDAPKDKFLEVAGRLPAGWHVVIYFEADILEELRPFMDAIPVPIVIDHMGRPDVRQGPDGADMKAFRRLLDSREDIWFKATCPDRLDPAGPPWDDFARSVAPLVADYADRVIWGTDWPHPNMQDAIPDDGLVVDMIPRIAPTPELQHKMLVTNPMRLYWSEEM

| Ki [µM] | SMILES |
| --- | --- |
| 75 ± 2 | O=C(O)c1ccnc(C(=O)O)c1 [compound 2, pyridine-2,4-dicarboxylic acid] |
| 40 ± 3 | O=C(O)c1cc(O)cc(C(=O)O)c1 [compound 5, 5-hydroxyisophthalic acid] |

— paper PMC3416963 (Biochemistry, 2012)
